The source of these data is the supplement of paper PMC11061612.

Holding throughout (assay): combination Emax (second highest fraction inhibited in the dose matrix, 72 h); higher = more inhibition; extreme values may be limits of the assay
Experiment [1] concerns AsPC-1 (Pancreatic Carcinoma). Put shortly:
(§1)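 Bliss excess equals the observed combination effect minus the expected value EA + EB − EA·EB, where EA and EB are the effects of each agent alone. Combination Emax is the second-highest inhibition within the matrix. Inhibition was scaled from CellTiter-Glo 2.0 luminescence, with 0 set by vehicle wells and 1 by blank wells, after 72 hours of two-drug dosing of cells plated in 1536-well plates.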

Experiment [2] has as its system CHL-1 (Melanoma). Put shortly: as §1
For experiment [3], the system named is CML-T1 (Chronic Myelogenous Leukemia). Put shortly: as §1
The subject of experiment [4] is COLO-684 (Endometrial Carcinoma). Put shortly:
as §1

The subject of experiment [5] is ES-2 (Ovarian Carcinoma). An outline of the steps:
as §1

Experiment [6] concerns FLO-1 (Esophageal Adenocarcinoma). Put shortly:
as §1

In experiment [7] the test system is HSC-3 (Oral Cavity Carcinoma). An outline of the steps:
as §1

Experiment [8] has as its system HuO-3N1 (Osteosarcoma). Put shortly:
as §1

The test system of experiment [9] is KYM-1 (Rhabdomyosarcoma). An outline of the steps:
as §1

Experiment [10] concerns NCI-H1155 (Non-Small Cell Lung Carcinoma). Put shortly: as §1
Experiment [11] relates to NCI-H1623 (Lung Adenocarcinoma). Put shortly:
as §1

In experiment [12] the test system is NCI-H1755 (Lung Adenocarcinoma). An outline of the steps: as §1
Experiment [13] relates to NCI-H196 (Small Cell Lung Carcinoma). An outline of the steps:
as §1

Experiment [14] deals with OCI-AML5 (Acute Myeloid Leukemia). Put shortly:
as §1

In experiment [15] the test system is OV-90 (Ovarian Carcinoma). Put shortly: as §1
Experiment [16] relates to OVTOKO (Ovarian Carcinoma). Put shortly:
as §1

Experiment [17] concerns PC-14 (Lung Adenocarcinoma). Put shortly:
as §1

Experiment [18] deals with RT4 (Bladder Carcinoma). An outline of the steps:
as §1

In experiment [19] the test system is SK-MM-2 (Plasma Cell Myeloma). An outline of the steps:
as §1

In experiment [20] the test system is SW684 (Other Solid Carcinomas). Put shortly: as §1

Take `COc1cccc(OCCCN)c1-c1cc(Nc2cnc(C#N)cn2)n[nH]1` [Prexasertib] + O=C(c1cc(Cc2n[nH]c(=O)c3ccccc23)ccc1F)N1CCN(C(=O)C2CC2)CC1 [Olaparib] (first compound max 1 µM, 7x7, partner max 10 µM): the “combination Emax” value in [1] amounted to 0.332; in [2], 0.838; in experiment [3] it was 0.978; in experiment [4], 0.707; in experiment [5], 0.788; in [6], 0.677. Besides, the “combination Emax” value worked out at 0.719 in [7]; 0.524 in experiment [8]; 0.855 in experiment [9]; 0.927 in [10]; 0.813 in experiment [11]; 0.907 in experiment [12]. Also, the “combination Emax” value was 0.556 in experiment [13]; 0.991 in experiment [14]; 0.558 in experiment [15]; 0.52 in experiment [16]; 0.848 in experiment [17]; 0.237 in [18]. Also, the entries for the “combination Emax” value in experiment [19] and in experiment [20] were 0.656 and 0.43, respectively.
Regarding `CC1(C)CCC(CN2CCN(c3ccc(C(=O)NS(=O)(=O)c4ccc(NCC5CCOCC5)c([N+](=O)[O-])c4)c(Oc4cnc5[nH]ccc5c4)c3)CC2)=C(c2ccc(Cl)cc2)C1` [Venetoclax] + C=CCn1c(=O)c2cnc(Nc3ccc(N4CCN(C)CC4)cc3)nc2n1-c1cccc(C(C)(C)O)n1 [AZD1775] (first compound max 1 µM, partner max 1 µM), the “combination Emax” value came out at 0.282 in experiment [1]; 0.891 in [2]; 1 in experiment [3]; 0.732 in experiment [4]; 0.644 in experiment [5]; 0.84 in experiment [6]. Further, the “combination Emax” value was 0.492 in [7]; 0.386 in [8]; 0.314 in [9]; 0.223 in [10]; 0.577 in experiment [11]; 0.846 in experiment [12]. In addition, the “combination Emax” value in [13] was 0.574; in [14], 1; in [15], 0.512; in [16], 0.529; in experiment [17], 0.93; in experiment [18], 0.372. The entries for the “combination Emax” value in experiment [19] and in experiment [20] were 1 and 0.604, respectively.
Turning to `Cc1c2c(nn1C)CSCc1cc(n(C)n1)CSc1cc(c3ccccc3c1)OCCCc1c(C(=O)O)n(C)c3c-2c(Cl)ccc13` [AZD5991] + C=CCn1c(=O)c2cnc(Nc3ccc(N4CCN(C)CC4)cc3)nc2n1-c1cccc(C(C)(C)O)n1 [AZD1775] (first compound max 1 µM, partner max 1 µM), the “combination Emax” value was 0.369 in experiment [1]; 0.745 in [2]; 0.938 in experiment [3]; 0.739 in [4]; 0.842 in [5]; 0.891 in experiment [6]. In addition, the “combination Emax” value is 0.851 in experiment [7]; 1 in experiment [8]; 0.755 in experiment [9]; 0.786 in experiment [10]; 0.959 in [11]; 0.79 in experiment [12]. Besides, the “combination Emax” value was found to be 0.508 in experiment [13]; 1 in experiment [14]; 0.521 in experiment [15]; 0.618 in [16]; 0.921 in experiment [17]; 0.53 in experiment [18]. For the same compound, the figures for the “combination Emax” value in experiment [19] and in [20] were 0.707 and 0.273, respectively.
For the compound `CN(CCO)CC[C@H](CSc1ccccc1)Nc1ccc(S(=O)(=O)NC(=O)c2ccc(N3CCC([C@@H](O)c4ccccc4-c4ccc(Cl)cc4)CC3)cc2)cc1S(=O)(=O)C(F)(F)F` [AZD4320] + C=CCn1c(=O)c2cnc(Nc3ccc(N4CCN(C)CC4)cc3)nc2n1-c1cccc(C(C)(C)O)n1 [AZD1775] (first compound max 1 µM, partner max 1 µM), the “combination Emax” value in [1] was found to be 0.728; in experiment [2], 0.703; in experiment [3] it was 1; in experiment [4], 0.763; in experiment [5], 0.722; in [6] it was 0.977. For the same compound, the “combination Emax” value in experiment [7] is 0.707; in experiment [8] it was 0.349; in experiment [9], 0.617; in [10], 0.908; in [11], 0.608; in experiment [12], 0.854. Moreover, the “combination Emax” value in experiment [13] stood at 0.671; in experiment [14], 1; in [15] it was 0.933; in experiment [16], 0.621; in experiment [17], 0.99; in [18] it was 0.629. For the same compound, the “combination Emax” value in experiment [19] is 1; in experiment [20] it was 0.381.
Regarding `NC1(C(=O)N[C@@H](CCO)c2ccc(Cl)cc2)CCN(c2ncnc3[nH]ccc23)CC1` [Capivasertib] + CC(C)n1c(=O)n(C)c2cnc3cc(F)c(-c4ccc(OCCCN5CCCCC5)nc4)cc3c21 [AZD1390] (first compound max 10 µM, 7x7, partner max 0.3 µM), the “combination Emax” value was determined as 0.208 in experiment [1]; 0.126 in [2]; 0.656 in experiment [3]; 0.56 in experiment [4]; 0.257 in [5]; 0.346 in experiment [6]. The “combination Emax” value in experiment [7] was 0.608; in experiment [8] it was 0.46; in experiment [9] it was 0.52; in [10], 0.357; in experiment [11], 0.477; in experiment [12], 0.443. For the same compound, the “combination Emax” value in [13] came to 0.267; in experiment [14] it was 0.22; in [15] it was 0.284; in [16] it was 0.516; in experiment [17], 0.392; in [18], 0.0517. For the same compound, the “combination Emax” value in experiment [19] was 0.243; in [20] it was 0.536.
For `CN(CCO)CC[C@H](CSc1ccccc1)Nc1ccc(S(=O)(=O)NC(=O)c2ccc(N3CCC([C@@H](O)c4ccccc4-c4ccc(Cl)cc4)CC3)cc2)cc1S(=O)(=O)C(F)(F)F` [AZD4320] + Cc1cc2ncnn2cc1Nc1ncc2c(n1)n(C1CCOCC1)c(=O)n2C [AZD7648] (first compound max 1 µM, 7x7, partner max 10 µM), the “combination Emax” value in [1] was 0.566; in experiment [2] it was 0.177; in [3], 0.99; in experiment [4] it was 0.197; in [5], 0.501; in [6] it was 0.347. Moreover, the “combination Emax” value in experiment [7] is 0.151; in experiment [8], 0.139; in experiment [9], 0.0895; in [10], 0.772; in experiment [11] it was 0.298; in experiment [12], 0.286. Further, the “combination Emax” value in experiment [13] was 0.128; in experiment [14], 1; in experiment [15], 0.6; in experiment [16], 0.361; in experiment [17], 0.203; in experiment [18] it was 0.355. Also, the “combination Emax” value came out at 1 in [19] and 0.184 in experiment [20].
